Where two headings read alike, the source gives them in different places.
Assays:
[1] = cited from earlier work
[2] = Solubility of benzoyl peroxide; format: physicochemical
[3] = human skin specimens used within 7 to 10 days; cited from earlier work

- solution concentration obtainable ([2]; acetone and isopropanol): up to 10 % by weight
- solubility of the drug in the formulation ([2]; formulations F and G): very low solubility
- solubility ([2]; water or normal saline solution): exceedingly low solubility
SMILES: O=C(OOC(=O)c1ccccc1)c1ccccc1 [Benzoyl peroxide, benzoyl peroxide]
- solubility ([1]; alcohols): slightly soluble in alcohols
- solubility ([1]; organic solvents): soluble in nearly all organic solvents
- solubility ([1]; organic solvents, listed as benzoyl peroxide): limited solubility in most solvents
- solubility ([1]; water): slightly soluble in water
- metabolism during skin absorption [3]: metabolized to benzoic acid and accumulated as such in the receptor fluid

Reference: patent US5879716A, “Methods and compositions for topical delivery of benzoyl peroxide” (priority 1993, dated 1999)
